A short description of data set [1]: in vivo. The conditions noted are these: Sprague-Dawley, rat, po, 5 mg/kg.
Data set [2] is described as follows: in vivo. The conditions noted are these: Sprague-Dawley, rat, iv, 1 mg/kg.
Data set [3] can be described thus: in vivo. The note with it: Sprague-Dawley, rat, iv, 1 mg/kg. The source holds these as a separate data set.
Data set [4] can be described thus: in vivo. The conditions noted are these: Sprague-Dawley, rat.

For orientation: clearance means a measure of how efficiently the substance is removed, as volume per time. A word on the Vd: it is a proportionality between amount in the body and measured concentration, not a real space. A high value points to wide distribution into tissue. As a reminder, the half-life is the time needed for the level to fall by half in the phase considered. Read a high half-life as slow loss. With `C[C@@H](C(=O)N(C)[C@@H]1CCc2c(CC(=O)O)c3ccccc3n2C1)c1ccc(F)cc1`, the bioavailability in the data set “in vivo [1]” amounted to 73%. The clearance in the data set “in vivo [2]” was found to be 1.1 mL/min/kg. In addition, in “in vivo [3]”, the Vd amounted to 0.36 L/kg. The half-life in the data set “in vivo [4]” was 4.7 h.

Regarding `CN([C@@H]1CCc2c(CC(=O)O)c3ccccc3n2C1)S(=O)(=O)c1ccc(F)cc1` [MK-7246], the bioavailability in “in vivo [1]” stood at 138%. In the data set “in vivo [3]”, the Vd came out at 1.1 L/kg.

The values above are taken from ChEMBL document CHEMBL1777736, “New indole amide derivatives as potent CRTH2 receptor antagonists” (Bioorg Med Chem Lett, 2011).
